US8501722B2, “Methods and compositions for treating bacterial infection” (priority 2009, dated 2013)
Values joined by “and” are separate entries in the source; they are usually repeats but may differ in a detail not shown here. Equal values may be shown once. Read-outs that look alike come from different tables or passages of the source.

Legend:
SK(+)GAS = experiment: GAS growth by OD600 nm of culture; format: cell-based, Group A Streptococcus; details: for activity at 0.1 µg/mL / activity at 0.3 µg/mL / activity at 2.5 µg/mL / activity at 5 µg/mL / activity at 10 µg/mL / activity at 30 µg/mL / activity at 50 µg/mL / activity at 60 µg/mL / activity at 70 µg/mL / activity at 20 µg/mL / activity at 40 µg/mL: Streptococcus; for activity at 0.1 µg/mL: read-out: GAS Growth (% control), compound conc. 0.1 μg/ml; for activity at 0.3 µg/mL: read-out: GAS Growth (% control), compound conc. 0.3 μg/ml; for activity at 2.5 µg/mL: read-out: GAS Growth (% control), compound conc. 2.5 μg/ml; for activity at 5 µg/mL: read-out: GAS Growth (% control), compound conc. 5 μg/ml; for activity at 10 µg/mL: read-out: GAS Growth (% control), compound conc. 10 μg/ml; for activity at 30 µg/mL: read-out: GAS Growth (% control), compound conc. 30 μg/ml; for activity at 50 µg/mL: read-out: GAS Growth (% control), compound conc. 50 μg/ml; for activity at 60 µg/mL: read-out: GAS Growth (% control), compound conc. 60 μg/ml; for activity at 70 µg/mL: read-out: GAS Growth (% control), compound conc. 70 μg/ml; for activity at 20 µg/mL: read-out: GAS Growth (% control), compound conc. 20 μg/ml; for activity at 40 µg/mL: read-out: GAS Growth (% control), compound conc. 40 μg/ml

Experimental for streptokinase (SK): SK− Ecoli and SKCtr1's dose response relationship with these compounds were then examined.
The effects of 10 hit compounds out of the 23 identified were further tested by dose response assays. […] These compounds were tested for inhibition of ska expression by measuring SK activity in supernatants of GAS exposed to the test compound or control vehicle alone (DMSO). SK(+)GAS were cultured with hit compounds at a dose range of 10 nM to 100 μM at 37° C. for 16-20 hours. Supernatants of SK(+)GAS cultures were measured for SK activity using chromogenic substrate 2403 (Diapharma group Inc., West Chester, Ohio), according to the manufacturer's instruction and simultaneously monitored for nonspecific effects on GAS growth by measuring OD600 nm.
The positive compounds identified in dose response assays are subjected to SK assay to identify compounds inhibiting SK expression in SK(+)GAS. Briefly, SK(+)GAS is grown at the presence of hit compounds at a dose range determined by dose response assays within which SK(−) GAS growth is inhibited less than 10% while SKKanGAS growth is inhibited more than 50% under 20 μg/ml kanamycin.

| SMILES | activity at 0.1 µg/mL (SK(+)GAS) [%] | activity at 0.3 µg/mL (SK(+)GAS) [%] | activity at 2.5 µg/mL (SK(+)GAS) [%] | activity at 5 µg/mL (SK(+)GAS) [%] | activity at 10 µg/mL (SK(+)GAS) [%] | activity at 70 µg/mL (SK(+)GAS) [%] | SK Expression (% control) (streptokinase (SK); compound conc. 0.1 μg/ml) | SK Expression (% control) (streptokinase (SK); compound conc. 0.3 μg/ml) | SK Expression (% control) (streptokinase (SK); compound conc. 1.0 μg/ml) | SK Expression (% control) (streptokinase (SK); compound conc. 3 μg/ml) | SK Expression (% control) (streptokinase (SK); compound conc. 5 μg/ml) | SK Expression (% control) (streptokinase (SK); compound conc. 30 μg/ml) | SK Expression (% control) (streptokinase (SK); compound conc. 60 μg/ml) | activity at 20 µg/mL (SK(+)GAS) [%] | activity at 40 µg/mL (SK(+)GAS) [%] | SK Expression (% control) (streptokinase (SK); compound conc. 10 μg/ml) | SK Expression (% control) (streptokinase (SK); compound conc. 20 μg/ml) | SK Expression (% control) (streptokinase (SK); compound conc. 40 μg/ml) | also measured |
| --- | --- | --- | --- | --- | --- | --- | --- | --- | --- | --- | --- | --- | --- | --- | --- | --- | --- | --- | --- |
| C=CCn1c(SCCOC)nc2c(c1=O)C1(CCCCC1)Cc1ccccc1-2 [CCG-102493, 3-allyl-2-(2-methoxyethylthio)-3H-spiro[benzo[h]quinazoline-5,1′-cyclohexan]-4(6H)-one] | 99 | 103 | 93 | 92 | 94 | 129 | 75 % control | 98 % control | 54 % control | 51 % control | 98 % control and 50 % control | 64 % control and 42 % control | 52 % control and 27 % control | – | – | – | – | – | activity at 30 µg/mL (SK(+)GAS): 110%; activity at 50 µg/mL (SK(+)GAS): 123%; activity at 60 µg/mL (SK(+)GAS): 125%; SK Expression (% control) (streptokinase (SK); compound conc. 2.5 μg/ml): 101 % control; SK Expression (% control) (streptokinase (SK); compound conc. 50 μg/ml): 49 % control; SK Expression (% control) (streptokinase (SK); compound conc. 70 μg/ml): 52 % control |
| C=CCn1c(SCC(=O)OCC)nc2c(c1=O)C(C)(C)Cc1ccccc1-2 [1S-30398] | – | – | – | 98 | 98 | – | – | – | – | – | 42 % control | – | – | 99 | 111 | 36 % control | 38 | 39 | – |
| C=CCn1c(SCC(N)=O)nc2c(c1=O)C(C)(C)Cc1ccccc1-2 [CCG-203037, 2-(3-Allyl-5,5-dimethyl-4-oxo-3,4,5,6-tetrahydrobenzo[h]quinazolin-2-ylthio)acetamide] | 98 | 99 | 101 | 102 | – | 106 | 96 % control | 97 % control | 96 % control | 94 % control | – | 79 % control | 38 % control | 105 | 102 | 92 % control | – | – | – |
| C=CCn1c(SCc2ccccn2)nc2c(c1=O)C(C)(C)Cc1ccccc1-2 [CCG-203039, 3-Allyl-5,5-dimethyl-2-(pyridin-2-ylmethylthio)-5,6-dihydrobenzo[h]quinazolin-4(3H)-one] | 100 | 100 | 104 | 100 | – | 135 | 94 % control | 95 % control | 93 % control | 58 % control | – | 35 % control | 27 % control | 104 | 115 | 49 % control | – | – | – |
| C=CCn1c(SC)nc2c(c1=O)C1(CCCCC1)Cc1ccccc1-2 [CCG-102620, 3-Allyl-2-(methylthio)-3H-spiro[benzo[h]quinazoline-5,1′-cyclohexan]-4(6H)-one] | – | – | – | 104 | 106 | – | – | – | – | – | 62 % control | – | – | 104 | 115 | 50 % control | 33 | 27 | – |
| C=CCn1c(SCCN(C)C)nc2c(c1=O)C1(CCCCC1)Cc1ccccc1-2 [CCG-102495, 3-allyl-2-(2-(dimethylamino)ethylthio)-3H-spiro[benzo[h]quinazoline-5,1′-cyclohexan]-4(6H)-one] | – | – | – | – | – | – | – | – | – | – | – | – | – | 18 | – | – | 17 | – | – |
| C=CCn1c(SCCOC)nc2c(c1=O)CC(C)c1ccccc1-2 (stereo not shown) [CCG-203574, 3-allyl-2-(2-methoxyethylthio)-6-methyl-5,6-dihydrobenzo[h]quinazolin-4(3H)-one] | – | – | – | 102 | 95 | – | – | – | – | – | 80 % control | – | – | 85 | 68 | 10 % control | 6 | 6 | – |
| C=CCn1c(SCCO)nc2c(c1=O)C(C)(C)Cc1ccccc1-2 [CCG-203041, 3-Allyl-2-(2-hydroxyethylthio)-5,5-dimethyl-5,6-dihydrobenzo[h]quinazolin-4(3H)-one] | 100 | 102 | 104 | 106 | – | 50 | 93 % control | 90 % control | 90 % control | 87 % control | – | 28 % control | 12 % control | 107 | 60 | 57 % control | – | – | – |
| C=CCn1c(SCCOC)nc2c(c1=O)C(C)(C)Cc1cc(OC)ccc1-2 [CCG-203576, 3-allyl-8-methoxy-2-(2-methoxyethylthio)-5,5-dimethyl-5,6-dihydrobenzo[h]quinazolin-4(3H)-one] | 102 | 101 | 100 | 99 | 98 | 105 | 99 % control and 93 % control | 99 % control and 98 % control | 99 % control and 89 % control | 100 % control and 61 % control | 30 % control | – | – | 99 | 101 | – | 19 | 11 | GAS Growth (% control) (SK(+)GAS; compound conc. 2.5 μg/ml): 100 % control |
| C=CCn1c(SCc2ccccc2)nc2c(c1=O)C(C)(C)Cc1ccccc1-2 [compound 25203] | – | – | 89 | – | 92 | 143 | – | – | – | – | – | 70 % control | 52 % control | 100 | 118 | 96 % control | 84 | 63 | activity at 30 µg/mL (SK(+)GAS): 110%; activity at 50 µg/mL (SK(+)GAS): 125%; activity at 60 µg/mL (SK(+)GAS): 132%; SK Expression (% control) (streptokinase (SK); compound conc. 2.5 μg/ml): 110 % control; SK Expression (% control) (streptokinase (SK); compound conc. 50 μg/ml): 58 % control; SK Expression (% control) (streptokinase (SK); compound conc. 70 μg/ml): 60 % control |
| C=CCn1c(SCC)nc2c(c1=O)C(C)(C)Cc1ccccc1-2 [1S-26137] | – | – | – | 89 | 89 | – | – | – | – | – | 21 % control | – | – | 91 | 98 | 20 % control | 22 | 19 | activity at 30 µg/mL (SK(+)GAS): 105% |
| C=CCn1c(SCc2cccc(OC)c2)nc2c(c1=O)C1(CCCCC1)Cc1ccccc1-2 [CCG-102485, 3-allyl-2-(3-methoxybenzylthio)-3H-spiro[benzo[h]quinazoline-5,1′-cyclohexan]-4(6H)-one] | – | – | – | 102 | – | – | – | – | – | – | 81 % control | – | – | – | 104 | – | – | 91 | – |
| C=CCn1c(SCCOC)nc2c(c1=O)C(C)(C)Cc1ccccc1-2 [CCG-102624, 3-Allyl-2-(2-methoxyethylthio)-5,5-dimethyl-5,6-dihydrobenzo[h]quinazolin-4(3H)-one] | 100 | 98 | 101 | 93 | 94 | 113 | 90 % control | 97 % control | 79 % control | 35 % control | 30 % control | 26 % control | 28 % control | 93 | 87 | 33 % control and 29 % control | 30 | 23 | – |
| C=CCn1c(OCC)nc2c(c1=O)C1(CCCCC1)Cc1ccccc1-2 [CCG-102622, 3-Allyl-2-ethoxy-3H-spiro[benzo[h]quinazoline-5,1′-cyclohexan]-4(6H)-one] | – | – | – | 99 | 100 | – | – | – | – | – | 43 % control | – | – | 103 | 113 | 41 % control | 38 | 23 | – |
| CCn1c(SCc2ccccc2)nc2c(c1=O)C1(CCCC1)Cc1ccccc1-2 [AK968] | – | – | – | – | 96 | 130 | – | – | – | – | – | 57 % control | 33 % control | 105 | 117 | 83 % control | 64 | 54 | activity at 30 µg/mL (SK(+)GAS): 112%; activity at 50 µg/mL (SK(+)GAS): 124%; activity at 60 µg/mL (SK(+)GAS): 123%; SK Expression (% control) (streptokinase (SK); compound conc. 50 μg/ml): 40 % control; SK Expression (% control) (streptokinase (SK); compound conc. 70 μg/ml): 45 % control |
